Assay results published in the NIST ThermoML archive (doi:10.1021/je5010214).

Conditions: Liquid, Vibrating tube method

CC(C)CO [2-methyl-1-propanol]
Conditions	mass density [kg/m3]
293.15 K, 5367.8 kPa	806.019
293.15 K, 5979.3 kPa	806.327
293.15 K, 8031.4 kPa	807.842
293.15 K, 12279 kPa	811.587
293.15 K, 16110 kPa	814.191
293.15 K, 18001 kPa	815.385
293.15 K, 30253 kPa	822.999
293.15 K, 32967 kPa	824.811
293.15 K, 42984 kPa	830.218
293.15 K, 44913 kPa	831.278
293.15 K, 47933 kPa	833.008
293.15 K, 50078 kPa	834.047
293.16 K, 310.4 kPa	802.406
293.16 K, 463.5 kPa	802.612
293.16 K, 1059.7 kPa	802.921
293.16 K, 2037.1 kPa	803.747
293.16 K, 2922 kPa	804.089
293.16 K, 3431.5 kPa	804.593
293.16 K, 5298.8 kPa	805.894
293.16 K, 7111.4 kPa	807.238
293.16 K, 9968.5 kPa	809.474
293.16 K, 14057 kPa	812.743
293.16 K, 20853 kPa	817.066
293.16 K, 22118 kPa	818.157
293.16 K, 24057 kPa	819.188
293.16 K, 25922 kPa	820.412
293.16 K, 27187 kPa	821.228
293.16 K, 34602 kPa	825.683
293.16 K, 38051 kPa	827.567
293.16 K, 40103 kPa	828.763
293.16 K, 52135 kPa	835.387
293.16 K, 55036 kPa	836.79
293.16 K, 58004 kPa	838.271
293.16 K, 60107 kPa	839.502
293.16 K, 62061 kPa	840.325
293.16 K, 66037 kPa	842.335
298.15 K, 122.4 kPa	798.281
298.15 K, 162.6 kPa	798.371
298.15 K, 405.5 kPa	798.562
298.15 K, 632.8 kPa	798.678
298.15 K, 956.4 kPa	798.832
298.15 K, 6988.8 kPa	803.491
298.15 K, 14555 kPa	809.311
298.15 K, 18284 kPa	812.068
298.15 K, 20164 kPa	813.104
298.15 K, 22781 kPa	814.894
298.15 K, 25076 kPa	816.275
298.15 K, 27604 kPa	817.904
298.15 K, 30046 kPa	819.519
298.15 K, 32326 kPa	821.055
298.15 K, 33317 kPa	821.248
298.15 K, 44911 kPa	827.946
298.15 K, 60006 kPa	836.063
298.15 K, 62079 kPa	837.121
298.15 K, 65330 kPa	838.566
298.15 K, 66093 kPa	839.052
298.16 K, 1152.2 kPa	799.011
298.16 K, 2046.3 kPa	799.798
298.16 K, 3021.1 kPa	800.42
298.16 K, 5107.4 kPa	801.927
298.16 K, 9044.3 kPa	804.777
298.16 K, 9996.8 kPa	805.681
298.16 K, 11947 kPa	807.14
298.16 K, 33072 kPa	821.357
298.16 K, 34997 kPa	822.338
298.16 K, 37948 kPa	823.936
298.16 K, 39972 kPa	825.207
298.16 K, 41983 kPa	826.345
298.16 K, 48045 kPa	829.528
298.16 K, 49997 kPa	830.783
298.16 K, 52020 kPa	832.399
298.16 K, 54851 kPa	833.381
298.16 K, 57898 kPa	835.245
303.15 K, 50.6 kPa	793.736
303.15 K, 974.4 kPa	794.496
303.15 K, 1922.5 kPa	795.367
303.15 K, 9012.3 kPa	801.25
303.15 K, 10062 kPa	802.346
303.15 K, 14908 kPa	805.823
303.15 K, 18109 kPa	808.133
